In test [1] the test system is cultured cortical neurons. Nature of the test: Antagonism of NMDA-induced neurotoxicity in cultured cortical neurons (LDH release). The format is cell-based, mouse (Swiss-Webster). To be noted: 500 μM NMDA, 30 min exposure, LDH 24 h later. On the procedure:
Antagonism of NMDA-induced Neurotoxicity in Cultured Neurons
Preparation of Cultured Cortical Neurons
Pregnant, Swiss-Webster mice were obtained from Taconic Farms (Germantown, New York) and sacrificed 16 days post conception. Fetuses were removed and placed in a sterile dish containing Hank's balanced salt solution (HBSS), pH 7.4. Brain cortices were dissected, meninges were removed, the tissue was minced and placed into a solution of HBSS containing 0.25% (w/v) trypsin at 37° C. for 15 minutes. Tissue was then triturated with a sterile pasteur pipet, diluted with minimal essential media (Gibco 330-1430), pH 7.4, supplemented with 10% horse serum, 10% fetal calf serum, 2 mM 1-glutamine, 21 mM d-glucose, 2.2 g/L sodium bicarbonate, 1000 U/mL penicillin, and 1,000 μg/mL streptomycin. Cells were plated onto Falcon primaria 96 well plates at a final density of 50,000 cells/well and incubated at 37 °C in the presence of 5% (v/v) carbon dioxide. After 5 days, plating media was replaced with maintenance media containing minimal essential media (Gibco 330-1430), pH 7.4, supplemented with 10% horse serum, […], 21 mM d-glucose, 2.2 g/L sodium bicarbonate, 1,000 U/mL penicillin, 1,000 μg/mL streptomycin, and 10 μM cytosine arabinoside. On days 7 and 10, media was replaced with maintenance media as above lacking the cytosine arabinoside. Experiments were conducted on day 13.
Neuroprotection Assessment
Day 13 cultured cortical neurons were washed twice with minimal essential media, pH 7.4 and then exposed for 30 minutes to 500 μM N-methyl-D-aspartic acid (NMDA) with or without varying concentrations of test agents. […] MK-801 and test agents were prepared in minimal essential media supplemented with 21 mM d-glucose and 2.2 g/L sodium bicarbonate (MEM). After 30 minutes, media was replaced with MEM alone. Exposure of neurons to test agents was limited to the NMDA treatment period. Twenty-four hours after removal of NMDA, an aliquot of media from each well was removed for assessment of cell injury by determining lactate dehydrogenase (LDH) activity by the method of Wroblewski and LaDue Proc. Soc. Exp. Biol. Med. 1955, 90, 210-213. The results are expressed as an IC50 (in nM) value (concentration causing 50% inhibition) for the antagonism of NMDA--inducedneurotoxicity. Table 3 summarizes the results obtained from the testing of representative compounds of the invention in the [^3 H]TCP radioreceptor assay as well as in the antagonism of NMDA-induced neurotoxicity in cultured neurons.

The target of a further test is PCP receptor. The experiment in a line: [3H]TCP radioreceptor assay (binding to PCP recognition sites). Also noted: species or system rat (male Sprague-Dawley, whole brain). Particulars: for Ki: [3H]TCP approx. 1 nM, rat brain membranes, mean of at least two determinations. The method, boiled down: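 Rat whole-brain membranes (Tris-HCl, pH 7.7), 0.5 mg protein/tube, incubated with ~1 nM [3H]TCP for 25 min at room temperature; non-specific binding defined with 100 μM PCP. Bound ligand collected by filtration and counted by scintillation; Ki from at least two determinations, or % inhibition at 10 μM.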

For a further test, the system named is rat ischemia model. The experiment in a line: Middle cerebral artery occlusion (MCAo) model with reperfusion. The format is in vivo, rat (male Long Evans hooded and male Sprague-Dawley). Particulars: i.v. infusion started 30 min before occlusion. As for the experimental part:
Middle Cerebral Artery Occlusion (MCAo) Model with Reperfusion
A 3-vessel rat ischemia model similar to those that have been extensively described in the literature (e.g. Stroke 17, 738-743 (1986), Stroke 20, 513-518 (1989)) was utilized. Under isoflurane anesthesia the right middle cerebral artery (via an approach through the temporalis muscle) and both common carotid arteries were reversibly occluded for varying durations between 60 minutes and 120 minutes. Both male Long Evans hooded rats and male Sprague-Dawley rats weighing between 300 and 420 grams were used. The animals' temperature was maintained throughout the study with heat lamps. A femoral vein and the ipsilateral femoral artery were cannulated for intravenous infusion and arterial blood pressure measurements and blood samples. Infusions of the test compounds were initiated 30 minutes prior to occlusion at a rate of 40 microliters per minute. After reinitiation of blood flow the animals were allowed to regain consciousness. Six hours post-initiation of ischemia the animals were sacrificed and the extent of neuronal damage was quantified with TTC staining. The results are expressed as a percent inhibition (±SEM) of infarct and penumbra region.

The IC50 is the concentration that gives 50% inhibition. A low value points to greater potency. What is called Ki is a measure of affinity in units of concentration, obtained from inhibition or displacement. A lower Ki goes with a stronger hold on the target.

Turning to `c1ccc2c(c1)C1CC(c3ccoc3)(c3ccoc3)C2c2cccc[n+]21` (single isomer, unassigned; (+)) [Example 40(b), (+)-6,11-ethano-12,12-di(3-furanyl)-6,11-dihydrobenzo[b]quinolizinium chloride 3/2 hydrate], the midpoint of inhibition in test [1] (Mus musculus, Cortical neurone), the IC50, lay at 20 nM. For the same molecule, the affinity on PCP receptor, expressed as Ki, was 1.66 nM. Also, the results for the “% Inhibition (± SEM) of infarct and penumbra region” value (from here on “% Inhibition (± SEM)”) in the test on rat ischemia model (0.01 mg test compound/kg/min), in the test with rat ischemia model (0.03 mg test compound/kg/min) and with rat ischemia model (0.1 mg test compound/kg/min) were 1 ± 31%, 49 ± 25% and 47 ± 18%, respectively.
The molecule `[Cl-].c1ccc2c(c1)C1CC(c3ccoc3)(c3ccoc3)C2c2cccc[n+]21` (stereo not shown) [39(c), 6,11-ethano-12,12-di(3-furanyl)-6,11-dihydrobenzo[b]quinolizinium chloride] came in with a concentration for half-maximal inhibition (IC50) in test [1] (Mus musculus, Cortical neurone) of 45.4 nM. On PCP receptor, this molecule came in with a Ki of 1.79 nM. The “% Inhibition (± SEM)” value is 20 ± 7% in the test on rat ischemia model (0.03 mg test compound/kg/min) and 34 ± 6% in the test on rat ischemia model (0.1 mg test compound/kg/min).
On to `CC12c3ccccc3C(c3cccc[n+]31)C(c1ccccc1)(c1ccccc1)C21CC1` (stereo not shown) [51(c), 6,11-ethano-12,12-diphenyl-6-methyl-13,13-(spirocyclopropane)-6,11-dihydrobenzo[b]quinolizinium chloride], for which the IC50 in test [1] (Mus musculus, Cortical neurone) turned out to be 83 nM. The same molecule yielded a Ki on PCP receptor of 22.3 nM.
The like results for `c1ccc2c(c1)C1CC(c3ccsc3)(c3ccsc3)C2c2cccc[n+]21` (stereo not shown) [52(F), 6,11-ethanol 12,12-di(3-thienyl)-6,11-dihydrobenzo[b]quinolizinium chloride] were, in that order, 39 nM and 1.82 nM.
Molecule `c1coc(C2(c3ccco3)CC3c4ccccc4C2c2cccc[n+]23)c1` (stereo not shown) [57(d), 6,11-ethano-12,12-di(2-furanyl)-6,11-dihydrobenzo[b]quinolizinium chloride] returned a 50% inhibitory concentration (IC50) in test [1] of 36 nM. This molecule also registered a Ki on PCP receptor of 1.9 nM.
`c1ccc2c(c1)-c1ccccc1C21CC2c3ccccc3C1c1cccc[n+]12` (stereo not shown) [58(c), 6,11-ethano-12,12-spiro-9H-fluorenyl-6,11-dihydrobenzo[b]quinolizinium chloride] returned a half-inhibitory concentration (IC50) in test [1] (Mus musculus, Cortical neurone) of more than 1000 nM. For the same molecule, the “[3H]TCP percent inhibition @ 10 μm” value with PCP receptor (inhibition of [3H]TCP binding at 10 μM) is recorded as 32%.
The molecule `c1ccc2c(c1)C1CC(c3ccn[nH]3)(c3ccn[nH]3)C2c2cccc[n+]21` (stereo not shown) [63(d), 6,11-ethano-12,12-di(5-pyrazolyl)-6,11-dihydrobenzo[b]quinoliziniumperchlorate] had an IC50 in test [1] of 1630 nM. For the same molecule, the Ki at PCP receptor is 10 nM.
For `c1ccc2c(c1)C1CC(c3ccn[nH]3)(c3ccn[nH]3)C2c2cccc[n+]21` (stereo not shown) [64(f), 11-ethano-12,12-di-[(pyrazol-5-yl)-6,11-dihydrobenzo[b]quinolizinium chloride], in that order: 360 nM and 13 nM.
Consider `N#CC12CC(c3ccoc3)(c3ccoc3)C(c3ccccc31)c1cccc[n+]12` (stereo not shown) [171(b), 6,11-ethano-12,12-di(3-furyl)-6-cyano-6,11-dihydrobenzo[b]quinolizinium chloride], for which, in test [1] (Mus musculus, Cortical neurone), inhibition was half-maximal at 26.5 nM (IC50). At PCP receptor, the inhibition constant Ki amounted to 10.2 nM.
For `Oc1ccc2c(c1)C1c3cccc[n+]3C2CC1(c1cc[nH]n1)c1cc[nH]n1` (stereo not shown) [195(c), 12,12-di(pyrazol-3-yl)-9-hydroxy-6,11-ethano-6,11-dihydrobenzo[b]quinolizinium chloride], in that order: 30.8 nM and 12.6 nM.
Consider `Fc1ccc2c(c1)C1c3cccc[n+]3C2CC1(c1ccoc1)c1ccoc1.[O-][Cl+3]([O-])([O-])[O-]` (stereo not shown) [196(c), 12,12-di(3-furyl)-9-fluoro-6,11-ethano-6,11-dihydrobenzo[b]quinolizinium perchlorate], for which the IC50 in test [1] (Mus musculus, Cortical neurone) came out at 80 nM. This molecule also showed an inhibitory constant (Ki) at PCP receptor of 4.11 nM.
Take `Oc1cccc2c1C1c3cccc[n+]3C2CC1(c1ccoc1)c1ccoc1.[Cl-]` (stereo not shown) [Example 68(c), 6,11-ethano-12,12-di(3-furyl)-10-hydroxy-6,11-dihydrobenzo[b]quinoliziniumchloride]: at PCP receptor, the affinity corresponds to a Ki of 1.5 nM. The “% Inhibition (± SEM)” value in the test on rat ischemia model (0.1 mg test compound/kg/min) is given as 34 ± 14%.
In the case of `Oc1ccc2c(c1)C1c3cccc[n+]3C2CC1(c1ccoc1)c1ccoc1` (stereo not shown) [Example 193, 12,12-di(3-furyl)-9-hydroxy-6,11-ethano-6,11-dihydrobenzo[b]quinolizinium chloride], in test [1] (Mus musculus, Cortical neurone), the IC50 stood at 11.8 nM. This molecule yielded an inhibition constant Ki at PCP receptor of 2.13 nM.
